Assay results reported in PMC9481151, “Discovery of new symmetrical and asymmetrical nitrile-containing 1,4-dihydropyridine derivatives as dual kinases and P-glycoprotein inhibitors: synthesis, in vitro assays, and in silico studies” (Journal of Enzyme Inhibition and Medicinal Chemistry, 2022).

How the values were obtained:
[1] = system: HT29; experiment: NCI single dose (10 µM) SRB screen; type: cell-based, human; details: colon cancer, 48 h
[2] = system: SK-MEL-2; experiment: NCI single dose (10 µM) SRB screen; type: cell-based, human; details: melanoma, 48 h
[3] = system: CCRF-CEM; experiment: NCI single dose (10 µM) SRB screen; type: cell-based, human; details: leukaemia, 48 h
[4] = system: OVCAR-8; experiment: NCI single dose (10 µM) SRB screen; type: cell-based, human; details: ovarian cancer, 48 h
[5] = system: LOX IMVI; experiment: NCI single dose (10 µM) SRB screen; type: cell-based, human; details: melanoma, 48 h
[6] = system: MDA-MB-231; experiment: NCI single dose (10 µM) SRB screen; type: cell-based, human; details: breast cancer, 48 h
[7] = system: Aspergillus flavus; experiment: Agar well diffusion method; details: relative to clotrimazole
[8] = system: HL-60(TB); experiment: NCI single dose (10 µM) SRB screen; type: cell-based, human; details: leukaemia, 48 h
[9] = system: Candida albicans; experiment: Agar well diffusion method; details: relative to clotrimazole
[10] = system: SK-MEL-28; experiment: NCI single dose (10 µM) SRB screen; type: cell-based, human; details: melanoma, 48 h
[11] = system: SR; experiment: NCI single dose (10 µM) SRB screen; type: cell-based, human; details: leukaemia, 48 h
[12] = system: RXF 393; experiment: NCI single dose (10 µM) SRB screen; type: cell-based, human; details: renal cancer, 48 h
[13] = system: HOP-62; experiment: NCI single dose (10 µM) SRB screen; type: cell-based, human; details: non-small cell lung cancer, 48 h
[14] = system: SN12C; experiment: NCI single dose (10 µM) SRB screen; type: cell-based, human; details: renal cancer, 48 h
[15] = system: K-562; experiment: NCI single dose (10 µM) SRB screen; type: cell-based, human; details: leukaemia, 48 h
[16] = system: OVCAR-5; experiment: NCI single dose (10 µM) SRB screen; type: cell-based, human; details: ovarian cancer, 48 h
[17] = system: UACC-62; experiment: NCI single dose (10 µM) SRB screen; type: cell-based, human; details: melanoma, 48 h
[18] = system: SF-268; experiment: NCI single dose (10 µM) SRB screen; type: cell-based, human; details: CNS cancer, 48 h
[19] = system: Bacillus subtilis; experiment: Agar well diffusion method; details: relative to ciprofloxacin
[20] = system: Escherichia coli; experiment: Agar well diffusion method; details: relative to ciprofloxacin
[21] = system: SNB-75; experiment: NCI single dose (10 µM) SRB screen; type: cell-based, human; details: CNS cancer, 48 h
[22] = system: SK-OV-3; experiment: NCI single dose (10 µM) SRB screen; type: cell-based, human; details: ovarian cancer, 48 h
[23] = system: COLO 205; experiment: NCI single dose (10 µM) SRB screen; type: cell-based, human; details: colon cancer, 48 h
[24] = system: M14; experiment: NCI single dose (10 µM) SRB screen; type: cell-based, human; details: melanoma, 48 h
[25] = system: NCI 60 cancer cell lines; experiment: NCI single dose (10 µM) SRB screen, mean over panel; type: cell-based, human; details: mean over 60 cell lines, 48 h
[26] = system: KM12; experiment: NCI single dose (10 µM) SRB screen; type: cell-based, human; details: colon cancer, 48 h
[27] = system: Staphylococcus aureus; experiment: Agar well diffusion method; details: relative to ciprofloxacin
[28] = system: MALME-3M; experiment: NCI single dose (10 µM) SRB screen; type: cell-based, human; details: melanoma, 48 h
[29] = system: NCI-H460; experiment: NCI single dose (10 µM) SRB screen; type: cell-based, human; details: non-small cell lung cancer, 48 h
[30] = system: SF-539; experiment: NCI single dose (10 µM) SRB screen; type: cell-based, human; details: CNS cancer, 48 h
[31] = system: NCI-H322M; experiment: NCI single dose (10 µM) SRB screen; type: cell-based; details: non-small cell lung cancer, 48 h
[32] = system: Pseudomonas aeruginosa; experiment: Agar well diffusion method; details: relative to ciprofloxacin
[33] = system: MCF7; experiment: NCI single dose (10 µM) SRB screen; type: cell-based, human; details: breast cancer, 48 h
[34] = system: MOLT-4; experiment: NCI single dose (10 µM) SRB screen; type: cell-based, human; details: leukaemia, 48 h
[35] = system: MDA-MB-468; experiment: NCI single dose (10 µM) SRB screen; type: cell-based, human; details: breast cancer, 48 h
[36] = system: HCC-2998; experiment: NCI single dose (10 µM) SRB screen; type: cell-based, human; details: colon cancer, 48 h
[37] = system: A549/ATCC; experiment: NCI single dose (10 µM) SRB screen; type: cell-based, human; details: non-small cell lung cancer, 48 h
[38] = system: EKVX; experiment: NCI single dose (10 µM) SRB screen; type: cell-based, human; details: non-small cell lung cancer, 48 h
[39] = system: A498; experiment: NCI single dose (10 µM) SRB screen; type: cell-based, human; details: renal cancer, 48 h
[40] = system: HCT-116; experiment: NCI single dose (10 µM) SRB screen; type: cell-based, human; details: colon cancer, 48 h
[41] = system: SK-MEL-5; experiment: NCI single dose (10 µM) SRB screen; type: cell-based, human; details: melanoma, 48 h
[42] = system: OVCAR-3; experiment: NCI single dose (10 µM) SRB screen; type: cell-based, human; details: ovarian cancer, 48 h
[43] = system: CAKI-1; experiment: NCI single dose (10 µM) SRB screen; type: cell-based, human; details: renal cancer, 48 h
[44] = system: NCI-H522; experiment: NCI single dose (10 µM) SRB screen; type: cell-based, human; details: non-small cell lung cancer, 48 h
[45] = system: UO-31; experiment: NCI single dose (10 µM) SRB screen; type: cell-based, human; details: renal cancer, 48 h
[46] = system: HS578T; experiment: NCI single dose (10 µM) SRB screen; type: cell-based, human; details: breast cancer, 48 h
[47] = system: HOP-92; experiment: NCI single dose (10 µM) SRB screen; type: cell-based, human; details: non-small cell lung cancer, 48 h
[48] = system: UACC-257; experiment: NCI single dose (10 µM) SRB screen; type: cell-based, human; details: melanoma, 48 h
[49] = system: BT-549; experiment: NCI single dose (10 µM) SRB screen; type: cell-based, human; details: breast cancer, 48 h
[50] = system: SNB-19; experiment: NCI single dose (10 µM) SRB screen; type: cell-based, human; details: CNS cancer, 48 h
[51] = system: SF-295; experiment: NCI single dose (10 µM) SRB screen; type: cell-based, human; details: CNS cancer, 48 h
[52] = system: T-47D; experiment: NCI single dose (10 µM) SRB screen; type: cell-based, human; details: breast cancer, 48 h
[53] = system: ACHN; experiment: NCI single dose (10 µM) SRB screen; type: cell-based, human; details: renal cancer, 48 h
[54] = system: RPMI-8226; experiment: NCI single dose (10 µM) SRB screen; type: cell-based, human; details: leukaemia, 48 h
[55] = system: MDA-MB-435; experiment: NCI single dose (10 µM) SRB screen; type: cell-based, human; details: melanoma, 48 h
[56] = system: NCI-H23; experiment: NCI single dose (10 µM) SRB screen; type: cell-based, human; details: non-small cell lung cancer, 48 h
[57] = system: NCI/ADR-RES; experiment: NCI single dose (10 µM) SRB screen; type: cell-based, human; details: ovarian cancer, 48 h
[58] = system: DU-145; experiment: NCI single dose (10 µM) SRB screen; type: cell-based, human; details: prostate cancer, 48 h
[59] = system: OVCAR-4; experiment: NCI single dose (10 µM) SRB screen; type: cell-based, human; details: ovarian cancer, 48 h
[60] = system: NCI-H226; experiment: NCI single dose (10 µM) SRB screen; type: cell-based, human; details: non-small cell lung cancer, 48 h
[61] = system: IGROV1; experiment: NCI single dose (10 µM) SRB screen; type: cell-based, human; details: ovarian cancer, 48 h
[62] = system: SW-620; experiment: NCI single dose (10 µM) SRB screen; type: cell-based, human; details: colon cancer, 48 h
[63] = system: 786-0; experiment: NCI single dose (10 µM) SRB screen; type: cell-based, human; details: renal cancer, 48 h
[64] = system: PC-3; experiment: NCI single dose (10 µM) SRB screen; type: cell-based, human; details: prostate cancer, 48 h
[65] = system: HCT-15; experiment: NCI single dose (10 µM) SRB screen; type: cell-based, human; details: colon cancer, 48 h
[66] = system: TK-10; experiment: NCI single dose (10 µM) SRB screen; type: cell-based, human; details: renal cancer, 48 h
[67] = system: U251; experiment: NCI single dose (10 µM) SRB screen; type: cell-based, human; details: CNS cancer, 48 h
[68] = molecular target: HER-2 (Homo sapiens, UniProt P04626); design: method as in PMID 34146919; details: introduction; cited from earlier work
Chain of HER-2 (P04626 23-1255): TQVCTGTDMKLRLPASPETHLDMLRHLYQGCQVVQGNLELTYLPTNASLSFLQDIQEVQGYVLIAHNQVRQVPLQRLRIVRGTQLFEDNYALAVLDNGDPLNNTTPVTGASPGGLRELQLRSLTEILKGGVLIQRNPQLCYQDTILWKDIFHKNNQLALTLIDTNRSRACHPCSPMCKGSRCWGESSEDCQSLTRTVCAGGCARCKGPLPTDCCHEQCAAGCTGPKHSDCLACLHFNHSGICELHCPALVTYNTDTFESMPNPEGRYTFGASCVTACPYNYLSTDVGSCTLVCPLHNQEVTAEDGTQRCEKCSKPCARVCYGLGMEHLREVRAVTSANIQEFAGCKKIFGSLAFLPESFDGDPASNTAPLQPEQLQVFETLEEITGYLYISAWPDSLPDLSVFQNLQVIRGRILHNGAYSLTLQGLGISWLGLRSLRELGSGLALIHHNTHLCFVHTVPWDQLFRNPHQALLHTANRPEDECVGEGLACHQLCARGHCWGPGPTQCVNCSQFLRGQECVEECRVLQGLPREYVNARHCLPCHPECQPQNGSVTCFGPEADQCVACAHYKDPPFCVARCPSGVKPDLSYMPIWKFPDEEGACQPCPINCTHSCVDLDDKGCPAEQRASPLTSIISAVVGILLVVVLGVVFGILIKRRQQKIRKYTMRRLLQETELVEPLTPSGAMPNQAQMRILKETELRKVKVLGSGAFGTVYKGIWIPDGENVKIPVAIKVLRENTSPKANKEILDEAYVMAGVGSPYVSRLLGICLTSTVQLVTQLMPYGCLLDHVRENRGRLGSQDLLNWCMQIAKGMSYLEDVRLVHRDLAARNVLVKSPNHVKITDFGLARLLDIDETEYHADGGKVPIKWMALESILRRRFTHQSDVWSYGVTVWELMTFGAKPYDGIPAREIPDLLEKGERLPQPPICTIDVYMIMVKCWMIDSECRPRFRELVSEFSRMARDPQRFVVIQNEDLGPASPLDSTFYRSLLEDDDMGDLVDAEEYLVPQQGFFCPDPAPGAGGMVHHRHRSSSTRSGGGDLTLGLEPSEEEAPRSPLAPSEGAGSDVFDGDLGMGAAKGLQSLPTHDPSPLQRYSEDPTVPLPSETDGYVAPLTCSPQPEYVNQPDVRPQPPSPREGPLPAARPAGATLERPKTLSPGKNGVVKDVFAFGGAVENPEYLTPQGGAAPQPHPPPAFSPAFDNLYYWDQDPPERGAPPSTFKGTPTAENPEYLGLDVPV

[69] = molecular target: BTK (Homo sapiens, UniProt Q06187); design: method as in PMID 34146919; details: introduction; cited from earlier work
Chain of BTK (Q06187 whole entry): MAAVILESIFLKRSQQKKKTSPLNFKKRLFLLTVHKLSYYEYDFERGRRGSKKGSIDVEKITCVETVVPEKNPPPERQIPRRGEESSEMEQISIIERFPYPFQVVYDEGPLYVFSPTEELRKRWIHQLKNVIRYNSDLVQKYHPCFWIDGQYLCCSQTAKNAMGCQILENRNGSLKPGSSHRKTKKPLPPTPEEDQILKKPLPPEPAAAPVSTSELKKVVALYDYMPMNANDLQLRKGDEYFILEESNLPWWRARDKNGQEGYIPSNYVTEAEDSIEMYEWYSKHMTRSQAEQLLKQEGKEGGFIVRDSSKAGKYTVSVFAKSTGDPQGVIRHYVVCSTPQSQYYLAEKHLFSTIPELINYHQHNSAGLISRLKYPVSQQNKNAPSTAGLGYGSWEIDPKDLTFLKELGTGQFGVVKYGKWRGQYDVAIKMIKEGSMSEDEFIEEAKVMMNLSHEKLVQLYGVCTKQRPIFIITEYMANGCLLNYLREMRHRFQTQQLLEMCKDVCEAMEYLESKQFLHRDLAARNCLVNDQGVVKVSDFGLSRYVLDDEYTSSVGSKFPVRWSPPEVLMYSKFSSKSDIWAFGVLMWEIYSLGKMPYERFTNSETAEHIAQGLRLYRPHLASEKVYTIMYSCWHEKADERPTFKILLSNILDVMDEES

[70] = molecular target: EGFR (Homo sapiens, UniProt P00533); design: method as in PMID 34146919; details: introduction; cited from earlier work
Chain of EGFR (P00533 25-1210): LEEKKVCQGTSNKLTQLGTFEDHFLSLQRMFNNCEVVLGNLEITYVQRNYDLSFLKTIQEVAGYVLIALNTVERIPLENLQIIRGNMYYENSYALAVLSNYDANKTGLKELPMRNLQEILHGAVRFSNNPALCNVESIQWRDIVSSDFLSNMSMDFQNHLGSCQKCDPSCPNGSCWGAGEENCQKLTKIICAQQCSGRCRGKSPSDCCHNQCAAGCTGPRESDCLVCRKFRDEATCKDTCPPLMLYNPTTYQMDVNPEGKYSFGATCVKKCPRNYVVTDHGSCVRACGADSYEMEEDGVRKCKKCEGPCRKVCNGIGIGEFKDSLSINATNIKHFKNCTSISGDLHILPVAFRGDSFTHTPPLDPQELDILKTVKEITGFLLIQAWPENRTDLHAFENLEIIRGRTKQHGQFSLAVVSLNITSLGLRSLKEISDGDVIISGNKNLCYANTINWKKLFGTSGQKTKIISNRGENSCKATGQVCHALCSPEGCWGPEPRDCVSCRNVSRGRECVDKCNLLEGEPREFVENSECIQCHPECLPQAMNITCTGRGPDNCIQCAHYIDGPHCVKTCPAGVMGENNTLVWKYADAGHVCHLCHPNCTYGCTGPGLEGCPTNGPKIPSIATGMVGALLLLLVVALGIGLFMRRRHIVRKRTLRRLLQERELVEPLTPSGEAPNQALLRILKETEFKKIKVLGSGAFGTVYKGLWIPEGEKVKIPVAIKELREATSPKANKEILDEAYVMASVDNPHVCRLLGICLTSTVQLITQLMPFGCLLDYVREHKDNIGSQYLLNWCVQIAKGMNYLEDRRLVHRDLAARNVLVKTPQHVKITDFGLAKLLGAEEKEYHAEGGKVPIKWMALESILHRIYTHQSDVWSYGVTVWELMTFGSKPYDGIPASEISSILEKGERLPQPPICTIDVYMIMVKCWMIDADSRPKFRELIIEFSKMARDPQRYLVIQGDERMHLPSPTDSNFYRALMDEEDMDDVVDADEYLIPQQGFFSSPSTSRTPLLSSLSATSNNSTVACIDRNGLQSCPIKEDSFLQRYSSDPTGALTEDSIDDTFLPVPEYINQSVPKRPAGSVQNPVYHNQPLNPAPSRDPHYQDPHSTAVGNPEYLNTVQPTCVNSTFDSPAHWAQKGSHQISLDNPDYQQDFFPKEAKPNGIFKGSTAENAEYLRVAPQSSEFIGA

Q: Which results are given for CC1=C(C(=O)OC(C)(C)C)C(c2cccc(C#N)c2)C(C(=O)OC(C)(C)C)=C(C)N1 [Compound 1e, Di-tert-butyl 4-(3-cyanophenyl)-2,6-dimethyl-1,4-dihydropyridine-3,5-dicarboxylate]?
A: GI% HT29 [1]: 13%; GI% SK-MEL-2 [2]: – (Only GI% ≥ 10 are shown); GI% CCRF-CEM [3]: 16%; GI% OVCAR-8 [4]: – (Only GI% ≥ 10 are shown); GI% LOX IMVI [5]: 10%; GI% MDA-MB-231 [6]: 14%; % activity index, A. flavus [7]: – (Values below 25 are of limited value and not shown as they refer either to inactive or non-diffusing compounds); GI% HL-60(TB) [8]: 41%; % activity index, C. albicans [9]: – (Values below 25 are of limited value and not shown as they refer either to inactive or non-diffusing compounds); GI% SK-MEL-28 [10]: – (Only GI% ≥ 10 are shown); GI% SR [11]: 42%; GI% RXF 393 [12]: 33%; GI% HOP-62 [13]: – (Only GI% ≥ 10 are shown); GI% SN12C [14]: – (Only GI% ≥ 10 are shown); GI% K-562 [15]: 34%; GI% OVCAR-5 [16]: – (Only GI% ≥ 10 are shown); GI% UACC-62 [17]: 26%; GI% SF-268 [18]: 11%; % activity index, B. subtilis [19]: – (Values below 25 are of limited value and not shown as they refer either to inactive or non-diffusing compounds); % activity index, E. coli [20]: – (Values below 25 are of limited value and not shown as they refer either to inactive or non-diffusing compounds); GI% SNB-75 [21]: 38%; GI% SK-OV-3 [22]: – (Only GI% ≥ 10 are shown); GI% COLO 205 [23]: – (Only GI% ≥ 10 are shown); GI% M14 [24]: – (Only GI% ≥ 10 are shown); Mean GI% [25]: 14%; GI% KM12 [26]: 11%; % activity index, S. aureus [27]: – (Values below 25 are of limited value and not shown as they refer either to inactive or non-diffusing compounds); GI% MALME-3M [28]: – (Only GI% ≥ 10 are shown); GI% NCI-H460 [29]: – (Only GI% ≥ 10 are shown); GI% SF-539 [30]: 10%; GI% NCI-H322M [31]: – (Only GI% ≥ 10 are shown); % activity index, P. aeruginosa [32]: – (Values below 25 are of limited value and not shown as they refer either to inactive or non-diffusing compounds); GI% MCF7 [33]: 34%; GI% MOLT-4 [34]: 39%; GI% MDA-MB-468 [35]: 27%; GI% HCC-2998 [36]: – (Only GI% ≥ 10 are shown); GI% A549/ATCC [37]: 20%; GI% EKVX [38]: 20%; GI% A498 [39]: – (Only GI% ≥ 10 are shown); GI% HCT-116 [40]: 35%; GI% SK-MEL-5 [41]: 14%; GI% OVCAR-3 [42]: – (Only GI% ≥ 10 are shown); GI% CAKI-1 [43]: 32%; GI% NCI-H522 [44]: 17%; GI% UO-31 [45]: 25%; GI% HS578T [46]: – (Only GI% ≥ 10 are shown); melting point: 166 to 168 °C; GI% HOP-92 [47]: 30%; GI% UACC-257 [48]: 16%; GI% BT-549 [49]: – (Only GI% ≥ 10 are shown); GI% SNB-19 [50]: – (Only GI% ≥ 10 are shown); GI% SF-295 [51]: 27%; GI% T-47D [52]: 53%; GI% ACHN [53]: 14%; GI% RPMI-8226 [54]: 39%; GI% MDA-MB-435 [55]: – (Only GI% ≥ 10 are shown); GI% NCI-H23 [56]: 13%; GI% NCI/ADR-RES [57]: – (Only GI% ≥ 10 are shown); GI% DU-145 [58]: – (Only GI% ≥ 10 are shown); GI% OVCAR-4 [59]: – (Only GI% ≥ 10 are shown); GI% NCI-H226 [60]: 22%; GI% IGROV1 [61]: – (Only GI% ≥ 10 are shown); GI% SW-620 [62]: – (Only GI% ≥ 10 are shown); GI% 786-0 [63]: 18%; GI% PC-3 [64]: 48%; GI% HCT-15 [65]: 19%; GI% TK-10 [66]: – (Only GI% ≥ 10 are shown); GI% U251 [67]: – (Only GI% ≥ 10 are shown)

Q: Which results are given for CCOC(=O)C1=C(C)NC(C)=C(C(=O)OCC)C1c1ccc2c(c1)Cc1ccccc1-2 [Compound II]?
A: IC50 [68]: 0.0845 µM; IC50 [69]: 0.0688 µM; IC50 [70]: 0.0718 µM
